What was measured:
[1] = target: T1, rat adrenergic α1B receptor (Rattus norvegicus, UniProt P15823); test: Radioligand binding, adrenergic α1B ([3H]Prazosin); details: 0.1 μM compound; read-out: Percentage inhibition of ligand binding, Adrenergic α1B
T1 construct: rat adrenergic α1B receptor obtained from Wistar Rat liver; from tissue; host or cells: Wistar rat liver
T1 sequence (P15823 1-515): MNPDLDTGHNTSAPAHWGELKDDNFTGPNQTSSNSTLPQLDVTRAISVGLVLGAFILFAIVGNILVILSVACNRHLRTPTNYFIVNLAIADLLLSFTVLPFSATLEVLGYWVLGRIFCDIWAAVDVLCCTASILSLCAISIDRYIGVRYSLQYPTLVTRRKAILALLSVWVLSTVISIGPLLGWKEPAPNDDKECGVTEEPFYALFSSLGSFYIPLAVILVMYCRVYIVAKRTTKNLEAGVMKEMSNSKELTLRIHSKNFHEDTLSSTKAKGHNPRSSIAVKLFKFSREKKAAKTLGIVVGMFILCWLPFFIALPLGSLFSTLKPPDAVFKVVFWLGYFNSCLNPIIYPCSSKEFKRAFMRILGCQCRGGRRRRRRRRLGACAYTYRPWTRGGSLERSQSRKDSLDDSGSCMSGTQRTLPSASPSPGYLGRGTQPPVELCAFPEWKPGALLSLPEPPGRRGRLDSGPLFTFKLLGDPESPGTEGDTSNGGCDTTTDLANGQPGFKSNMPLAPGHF
In short: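 Rat α1B receptor from Wistar rat liver was incubated with 0.25 nM [3H]prazosin for 60 min at 25 °C in 50 mM Tris-HCl, pH 7.4, 0.5 mM EDTA. Non-specific binding was defined with 10 μM phentolamine. Bound radioligand was measured by filtration and counting, reported as percent inhibition of specific binding.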

[2] = target: T2, human recombinant adrenergic α1D receptor (Homo sapiens, UniProt P25100); test: Radioligand binding, adrenergic α1D ([3H]Prazosin); details: 0.1 μM compound; read-out: Percentage inhibition of ligand binding, Adrenergic α1D
T2 construct: expressed in transfected cells; host or cells: HEK-293
T2 sequence (P25100 1-572): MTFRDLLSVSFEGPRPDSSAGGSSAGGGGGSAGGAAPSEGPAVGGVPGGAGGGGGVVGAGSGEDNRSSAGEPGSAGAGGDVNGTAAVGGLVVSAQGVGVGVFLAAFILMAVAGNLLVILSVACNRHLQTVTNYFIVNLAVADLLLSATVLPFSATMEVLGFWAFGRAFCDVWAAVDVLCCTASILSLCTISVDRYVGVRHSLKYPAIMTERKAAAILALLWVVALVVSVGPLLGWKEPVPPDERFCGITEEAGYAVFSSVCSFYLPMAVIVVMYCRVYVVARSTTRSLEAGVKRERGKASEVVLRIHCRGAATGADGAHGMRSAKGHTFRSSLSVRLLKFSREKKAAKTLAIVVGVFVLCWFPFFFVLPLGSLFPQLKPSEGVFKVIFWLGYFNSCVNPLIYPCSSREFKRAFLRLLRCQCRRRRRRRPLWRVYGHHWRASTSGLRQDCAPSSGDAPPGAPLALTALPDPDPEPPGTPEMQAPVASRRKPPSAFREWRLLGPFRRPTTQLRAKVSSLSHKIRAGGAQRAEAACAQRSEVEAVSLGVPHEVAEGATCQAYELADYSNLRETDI
Procedure: Compounds were incubated with 0.6 nM [3H]Prazosin for 60 min at 25° C. Non-specific binding was estimated in the presence of 10 μM phentolamine. Receptor proteins were filtered and washed, the filters were then counted to determine [3H]Prazosin specifically bound. […] Biochemical assay results are presented as the percent inhibition of specific binding in Table B1.

[3] = target: T3, human recombinant adrenergic α2A receptor (Homo sapiens, UniProt P08913); test: Radioligand binding, adrenergic α2A ([3H]MK-912); details: 0.1 μM compound; read-out: Percentage inhibition of ligand binding, Adrenergic α2A
T3 construct: expressed in transfected cells; host or cells: insect Sf9 cells
T3 sequence (P08913 1-465): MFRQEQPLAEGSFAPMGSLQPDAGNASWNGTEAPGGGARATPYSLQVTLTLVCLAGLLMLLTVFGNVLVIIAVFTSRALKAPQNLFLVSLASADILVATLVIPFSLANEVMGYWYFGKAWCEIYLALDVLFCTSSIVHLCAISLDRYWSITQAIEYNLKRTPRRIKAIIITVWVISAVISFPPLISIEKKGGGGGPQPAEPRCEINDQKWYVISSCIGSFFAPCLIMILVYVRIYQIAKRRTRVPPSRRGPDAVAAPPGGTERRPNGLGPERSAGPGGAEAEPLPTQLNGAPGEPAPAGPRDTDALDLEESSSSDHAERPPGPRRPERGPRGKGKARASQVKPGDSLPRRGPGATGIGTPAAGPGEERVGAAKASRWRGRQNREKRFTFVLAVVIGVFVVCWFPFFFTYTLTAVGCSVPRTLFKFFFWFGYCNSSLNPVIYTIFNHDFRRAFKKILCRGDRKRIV
In short: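 Receptor expressed in Sf9 cells, in 50 mM Tris-HCl pH 7.4, 12.5 mM MgCl2, 2 mM EDTA; compounds incubated with 1 nM [3H]MK-912 for 60 min at 25 °C.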

[4] = target: T4, human recombinant adrenergic α2B receptor (Homo sapiens, UniProt P18089); test: Radioligand binding, adrenergic α2B ([3H]Rauwolscine); details: 0.1 μM compound; read-out: Percentage inhibition of ligand binding, Adrenergic α2B
T4 construct: expressed in transfected cells; host or cells: CHO-K1
T4 sequence (P18089 1-450): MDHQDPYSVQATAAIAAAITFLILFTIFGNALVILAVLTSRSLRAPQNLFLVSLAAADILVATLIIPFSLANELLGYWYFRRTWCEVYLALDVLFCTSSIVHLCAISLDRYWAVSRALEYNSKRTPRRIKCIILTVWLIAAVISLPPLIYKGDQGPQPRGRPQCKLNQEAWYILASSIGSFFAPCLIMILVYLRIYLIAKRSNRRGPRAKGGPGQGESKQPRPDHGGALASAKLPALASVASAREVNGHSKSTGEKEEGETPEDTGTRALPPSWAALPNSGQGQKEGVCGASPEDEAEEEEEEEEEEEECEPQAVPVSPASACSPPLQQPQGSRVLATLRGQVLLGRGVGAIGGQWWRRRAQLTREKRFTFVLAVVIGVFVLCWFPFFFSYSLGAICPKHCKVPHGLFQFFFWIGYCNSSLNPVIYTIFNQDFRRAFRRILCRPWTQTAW
In short: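 Readout: percent inhibition of specific [3H]Rauwolscine binding, measured by filtration and counting. Conditions: CHO-K1 cell-expressed receptor, 2.5 nM radioligand, 60 min, 25° C, Tris-HCl pH 7.4 buffer with MgCl2, EDTA, BSA. Non-specific binding: 10 μM Prazosin.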

Compound	inhibition at 0.1 µM [1]	inhibition at 0.1 µM [2]	inhibition at 0.1 µM [3]	inhibition at 0.1 µM [4]
Cc1ccc2c(c1)c1c(n2C#Cc2ccc(S(N)(=O)=O)cc2)CCN(C)C1 [compound 330, 4-(2,8-dimethyl-1,2,3,4-tetrahydro-pyrido[4,3-b]indol-5-ylethynyl)-benzenesulfonamide]	98%	72%	58%	99%
C/C(=C\n1c2c(c3cc(C)ccc31)CN(C)CC2)c1ccc(C(F)(F)F)nc1 [compound 331]	53%	70%	53%	99%
Cc1ccc2c(c1)c1c(n2C#Cc2ccc(S(N)(=O)=O)cc2)CN(C)CC1 [compound 333, 4-(2,6-dimethyl-1,2,3,4-tetrahydro-β-carbolin-9-ylethynyl)-benzenesulfonamide]	65%	16%	52%	88%
Cc1ccc2c(c1)c1c(n2C#Cc2ccc(S(N)(=O)=O)s2)CCN(C)C1 [compound 334, 5-(2,8-dimethyl-1,2,3,4-tetrahydro-pyrido[4,3-b]indol-5-ylethynyl)-thiophene-2-sulfonic acid amide]	91%	72%	55%	82%
C/C(=C\n1c2c(c3cc(C)cnc31)CN(C)CC2)c1ccc(F)cc1 [compound 335, 9-[2-(4-fluoro-phenyl)-propenyl]-3,6-dimethyl-6,7,8,9-tetrahydro-5H-1,6,9-triaza-fluorene]	82%	73%	60%	99%

The next lines start with the values.

inhibition at 0.1 µM [1]	inhibition at 0.1 µM [2]	inhibition at 0.1 µM [3]	inhibition at 0.1 µM [4]	Compound
33%	35%	51%	93%	Cc1ccc2c(c1)c1c(n2CCc2nc(-c3ccc(Cl)cc3)cs2)CCN(C)C1 [compound 326]
-5%	4%	58%	-4%	Cc1cc(-c2sccc2C)c2c(c1)c1c(n2CCc2ccc(C)nc2)CCN(C)C1 [compound 327]
95%	80%	76%	93%	Cc1ccc(C#Cn2c3c(c4cc(C)ccc42)CN(C)CC3)nc1 [compound 328, 2,8-dimethyl-5-(5-methyl-pyridin-2-ylethynyl)-2,3,4,5-tetrahydro-1H-pyrido[4,3-b]indole]
68%	78%	60%	104%	CCCc1ccc(/C(C)=C/n2c3c(c4cc(C)ccc42)CN(C)CC3)cn1 [compound 329]
41%	51%	94%	86%	Cc1ccc2c(c1)c1c(n2CCc2ccc3c(c2)CCCC3)CCN(C)C1 [compound 332, 2,8-dimethyl-5-[2-(5,6,7,8-tetrahydro-naphthalen-2-yl)-ethyl]-2,3,4,5-tetrahydro-1H-pyrido[4,3-b]indole]

— patent US8791132B2, “Compounds and methods for treatment of hypertension” (Medivation Technologies, Inc., priority 2011, dated 2014)
